In general, inhibition in vivo refers to how much of the control response was suppressed.

Each structure is given as a SMILES string.

Data set [1] concerns Mus musculus. Kind of data set: Analgesic activity in Mus musculus LACCA (mouse) assessed as inhibition of acetic acid-induced writhing at 17.49 mg/kg, po measured during 20 min period beginning 3 min after acetic acid challenge. A general note: In writhing tests, fewer writhes than in controls are read as antinociception.
Data set [2] concerns Rattus norvegicus. Kind of data set: Gastrointestinal toxicity in Rattus norvegicus Sprague-Dawley (rat) assessed as ulcer index at 83.98 mg/kg, po measured after 8 hr (reference value: 0.2 +/- 0.06). Type of data set: organism-based. Also on record: dose 83.98 mg/kg, route oral. The following applies: in vivo.
The subject of data set [3] is Rattus norvegicus. The experiment in a line: Anti-inflammatory activity in carrageenan-induced paw edema Rattus norvegicus Sprague-Dawley (rat) model assessed as increase in paw volume at 20.52 mg/kg, po measured after 2 hr. The format is functional. (In general: Carrageenan injected into the paw causes an acute inflammation.)
In data set [4] the test system is Rattus norvegicus. Kind of data set: Anti-inflammatory activity in carrageenan-induced paw edema Rattus norvegicus Sprague-Dawley (rat) model assessed as increase in paw volume at 20.52 mg/kg, po measured after 4 hr. The format is functional.
The test system of data set [5] is Rattus norvegicus. The experiment in a line: Gastrointestinal toxicity in Rattus norvegicus Sprague-Dawley (rat) assessed as ulcer index at 82 mg/kg, po measured after 8 hr (reference value: 0.2 +/- 0.06). Type of data set: organism-based. Also on record: dose 82 mg/kg, route oral. The following applies: in vivo.
The test system of data set [6] is Rattus norvegicus. The experiment in a line: Anti-inflammatory activity in carrageenan-induced paw edema Rattus norvegicus Sprague-Dawley (rat) model assessed as increase in paw volume at 23.95 mg/kg, po measured after 2 hr. The format is functional.
In data set [7] the test system is Mus musculus. Kind of data set: Analgesic activity in Mus musculus LACCA (mouse) assessed as inhibition of acetic acid-induced writhing at 17.1 mg/kg, po measured during 20 min period beginning 3 min after acetic acid challenge.
Data set [8] concerns Rattus norvegicus. Kind of data set: Anti-inflammatory activity in carrageenan-induced paw edema Rattus norvegicus Sprague-Dawley (rat) model assessed as increase in paw volume at 23.95 mg/kg, po measured after 4 hr. The format is functional.
The test system of data set [9] is Mus musculus. The experiment in a line: Analgesic activity in Mus musculus LACCA (mouse) assessed as inhibition of acetic acid-induced writhing at 10 mg/kg, po measured during 20 min period beginning 3 min after acetic acid challenge.
Data set [10] relates to Rattus norvegicus. The experiment in a line: Anti-inflammatory activity in carrageenan-induced paw edema Rattus norvegicus Sprague-Dawley (rat) model assessed as increase in paw volume at 12 mg/kg, po measured after 4 hr. Type of data set: functional.
For data set [11], the system named is Rattus norvegicus. Kind of data set: Anti-inflammatory activity in carrageenan-induced paw edema Rattus norvegicus Sprague-Dawley (rat) model assessed as increase in paw volume at 12 mg/kg, po measured after 2 hr. Type of data set: functional.
For data set [12], the system named is Rattus norvegicus. The experiment in a line: Gastrointestinal toxicity in Rattus norvegicus Sprague-Dawley (rat) assessed as ulcer index at 48 mg/kg, po measured after 8 hr (reference value: 0.2 +/- 0.06). The format is organism-based. Also on record: dose 48 mg/kg, route oral. The settings on record: in vivo.

Consider `COc1ccc2c(c1)c(CC(=O)Oc1cc(O)c3c(c1)O[C@H](c1ccc(OC)c(O)c1)CC3=O)c(C)n2C(=O)c1ccc(Cl)cc1` [INDOMETHACIN-HESPERTIN], for which, in the data set on Mus musculus [1], the inhibition in vivo at 17.49 mg/kg came to 89.4%. Besides, the UI with Rattus norvegicus [2] is 0.54. Besides, the Activity was determined as 37.78% in the data set with Rattus norvegicus [3] and 38.22% in the data set with Rattus norvegicus [4].
With `COc1ccc2c(c1)c(CC(=O)Oc1cc(O)c3c(c1)O[C@H](c1ccc(O)cc1)CC3=O)c(C)n2C(=O)c1ccc(Cl)cc1` [INDOMETHACIN-NARINGENIN], the UI with Rattus norvegicus [5] was determined as 0.62. The Activity stood at 39.13% in the data set with Rattus norvegicus [6] and 40.46% in the data set on Rattus norvegicus [8]. For the same compound, the inhibition in vivo at 17.1 mg/kg in the data set with Mus musculus [7] came to 86.7%.
In the case of `COc1ccc2c(c1)c(CC(=O)O)c(C)n2C(=O)c1ccc(Cl)cc1` [INDOMETHACIN], the inhibition in vivo at 10 mg/kg in the data set with Mus musculus [9] came to 74.2%. The Activity in the data set with Rattus norvegicus [10] is given as 57.39%; in the data set with Rattus norvegicus [11] it was 48.35%. The UI in the data set on Rattus norvegicus [12] worked out at 5.54.

Values taken from ChEMBL document CHEMBL3045455, “Design, synthesis and evaluation of novel indomethacinflavonoid mutual prodrugs as safer NSAIDs” (Med Chem Res, 2011).
